Test results as given in patent US9630961B2, “Arginine methyltransferase inhibitors and uses thereof” (Epizyme, Inc., priority 2013, dated 2017).

Target: T1, PRMT3 (Homo sapiens, UniProt O60678)
T1 construct: GST-tagged PRMT3; made in house; host or cells: E. coli BL21(DE3) Gold
Assay: PRMT3 Biochemical Assay (3H-SAM Flashplate, peptide substrate)
Details: 30 min preincubation, room temperature
Text: S-adenosylmethionine (SAM), S-adenosylhomocysteine (SAH), bicine, Tween20, dimethylsulfoxide (DMSO), bovine skin gelatin (BSG), isopropyl-β-D-thiogalactopyranoside (IPTG), and Tris(2-carboxyethyl)phosphine hydrochloride solution (TCEP) were purchased from Sigma-Aldrich at the highest level of purity possible. ^3H-SAM was purchase from American Radiolabeled Chemicals with a specific activity of 80 Ci/mmol. 384-well streptavidin Flashplates were purchased from PerkinElmer.
Peptide containing the classic RMT substrate motif was synthesized with an N-terminal linker-affinity tag motif and a C-terminal amide cap by 21st Century Biochemicals. The peptide was purified by high-performance liquid chromatography (HPLC) to greater than 95% purity and confirmed by liquid chromatography mass spectrometry (LC-MS). The sequence was Biot-Ahx-[…]-amide (SEQ ID NO.:11).
Full-length human PRMT3 (NM_005788.3) isoform 1 transcript clone was amplified from an HEK 293 cDNA library and subcloned into pGEX-KG (GE Life Sciences). The resulting construct encodes an N-terminal GST tag and a thrombin cleavage sequence ([…] […] […] […]) (SEQ ID NO.: 12) fused directly to Cys 2 of PRMT3.
E. coli (BL21(DE3) Gold, Stratagene) made competent by the CaCl2 method were transformed with the PRMT3 construct and ampicillin selection. Protein over-expression was accomplished by growing the PRMT3 expressing E. coli clone and inducing expression with 0.3 mM IPTG at 16° C. The culture was grown for 12 hours, harvested by centrifugation, and stored at −80° C. for purification.
GST-tagged PRMT3 eluted with 25-400 mM phosphate in buffer C. Protein was concentrated and buffer was exchanged to 20 mM Tris, 150 mM NaCl, 5% glycerol, 5 mM β-mercaptoethanol, pH7.8 by ultrafiltration. The purity of recovered protein was 70%.
General Procedure for PRMT3 Enzyme Assays on Peptide Substrates.
The assays were all performed in a buffer consisting of 20 mM Bicine (pH=7.6), 1 mM TCEP, 0.005% BSG, and 0.002% Tween 20, prepared on the day of use. Compounds in 100% DMSO (1 ul) were spotted into a polypropylene 384-well V-bottom plates (Greiner) using a Platemate Plus outfitted with a 384-channel head (Thermo Scientific). DMSO (1 ul) was added to Columns 11, 12, 23, 24, rows A-H for the maximum signal control and 1 ul of SAH, a known product and inhibitor of PRMT3, was added to columns 11, 12, 23, 24, rows I-P for the minimum signal control. A cocktail (40 ul) containing the PRMT3 enzyme was added by Multidrop Combi (Thermo-Fisher). The compounds were allowed to incubate with PRMT3 for 30 min at room temperature, then a cocktail (10 ul) containing SAM and peptide was added to initiate the reaction (final volume=51 ul). The final concentrations of the components were as follows: PRMT3 was 0.5 nM, ^3H-SAM was 100 nM, non-radiolabeled SAM was 1.8 uM, peptide was 330 nM, SAH in the minimum signal control wells was 1 mM, and the DMSO concentration was 2%. The assays were stopped by the addition of potassium chloride (10 ul) to a final concentration of 100 mM. 50 ul of the reaction in the 384-well polypropylene plate was then transferred to a 384-well Flashplate and the biotinylated peptides were allowed to bind to the streptavidin surface for at least 1 hour before being washed once with 0.1% Tween20 in a Biotek ELx405 plate washer. The plates were then read in a PerkinElmer TopCount plate reader to measure the quantity of ^3H-labeled peptide bound to the Flashplate surface, measured as disintegrations per minute (dpm) or alternatively, referred to as counts per minute (cpm).
Where dpm=disintegrations per minute, cmpd=signal in assay well, and min and max are the respective minimum and maximum signal controls.
Where top and bottom are the normally allowed to float, but may be fixed at 100 or 0 respectively in a 3-parameter fit. The Hill Coefficient normally allowed to float but may also be fixed at 1 in a 3-parameter fit. […]

T1 sequence (O60678 with tags, fused parts or gaps): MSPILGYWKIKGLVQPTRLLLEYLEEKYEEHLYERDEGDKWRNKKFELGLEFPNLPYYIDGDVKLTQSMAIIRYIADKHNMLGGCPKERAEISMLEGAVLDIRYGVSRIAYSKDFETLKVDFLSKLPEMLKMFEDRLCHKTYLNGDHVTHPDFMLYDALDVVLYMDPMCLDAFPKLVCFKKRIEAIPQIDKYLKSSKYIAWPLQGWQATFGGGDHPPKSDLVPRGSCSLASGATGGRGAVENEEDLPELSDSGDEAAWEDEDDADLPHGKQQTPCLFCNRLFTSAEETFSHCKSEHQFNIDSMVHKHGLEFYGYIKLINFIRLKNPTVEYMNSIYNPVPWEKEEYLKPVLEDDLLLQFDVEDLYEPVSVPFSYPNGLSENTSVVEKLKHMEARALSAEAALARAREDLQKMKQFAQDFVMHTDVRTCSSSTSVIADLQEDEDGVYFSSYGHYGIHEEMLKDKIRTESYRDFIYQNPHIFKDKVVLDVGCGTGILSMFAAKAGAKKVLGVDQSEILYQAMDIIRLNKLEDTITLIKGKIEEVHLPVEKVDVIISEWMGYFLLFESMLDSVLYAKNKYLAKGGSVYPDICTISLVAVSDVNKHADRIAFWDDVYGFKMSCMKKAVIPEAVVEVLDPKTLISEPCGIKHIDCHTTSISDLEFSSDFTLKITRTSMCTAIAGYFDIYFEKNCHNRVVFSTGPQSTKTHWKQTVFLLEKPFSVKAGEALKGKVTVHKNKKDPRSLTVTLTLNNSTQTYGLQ

IC50, ≥ 10 µM:
CN(CCN)Cc1c[nH]nc1-c1ccnn1C [Compound 15]
Cc1noc(C)c1-c1n[nH]cc1CN(C)CCN [Compound 10]
CN(CCN)Cc1c[nH]nc1-c1ccoc1 [Compound 7]
COc1ncc(-c2n[nH]cc2CN(C)CCN)cn1 [Compound 11]
CN(CCN)Cc1c[nH]nc1-c1cn[nH]c1 [Compound 12]
CN(CCN)Cc1c[nH]nc1-c1cnn(CCO)c1 [Compound 18]
CN(CCN)Cc1c[nH]nc1-c1cnn(C)c1 [Compound 8]
CN(CCN)Cc1c[nH]nc1-c1cncnc1 [Compound 4]
CN(CCN)Cc1c[nH]nc1-c1cc[nH]n1 [Compound 14]
CN(CCN)Cc1c[nH]nc1-c1cccs1 [Compound 5]

IC50, 1.01 to 3 µM:
CN(CCN)Cc1c[nH]nc1-c1cnc2[nH]ccc2c1 [Compound 13]

IC50, 3.01 to 10 µM:
CN(CCN)Cc1c[nH]nc1-c1ccco1 [Compound 6]
CN(CCN)Cc1c[nH]nc1-c1ccc2nccn2c1 [Compound 21, N^1-((3-(imidazo[1,2-a]pyridin-6-yl)-1H-pyrazol-4-yl)methyl)-N^1-methylethane-1,2-diamine]
CN(CCN)Cc1c[nH]nc1-c1cnn(-c2ccccc2)c1 [Compound 17]
CN(CCN)Cc1c[nH]nc1-c1ccc2cnn(C)c2c1 [Compound 19, N^1-methyl-N^1-((3-(1-methyl-1H-indazol-6-yl)-1H-pyrazol-4-yl)methyl)ethane-1,2-diamine]
CCn1cc(-c2n[nH]cc2CN(C)CCN)cn1 [Compound 16]
CN(CCN)Cc1c[nH]nc1-c1ccsc1 [Compound 3]
CC(C)n1cc(-c2n[nH]cc2CN(C)CCN)cn1 [Compound 22]
CC(C)Cn1cc(-c2n[nH]cc2CN(C)CCN)cn1 [Compound 23, N^1-((2′-isobutyl-3,4′-bi(1H-pyrazol)-4-yl)methyl)-N^1-methylethane-1,2-diamine]
CN(CCN)Cc1c[nH]nc1-c1ccc2ncnn2c1 [Compound 20]
CN(CCN)Cc1c[nH]nc1-c1cnn(Cc2ccccc2)c1 [Compound 24, N^1-((1′-benzyl-3,4′-bi(1H-pyrazol)-4-yl)methyl)-N^1-methylethane-1,2-diamine]
CN(CCN)Cc1c[nH]nc1-c1ccc2scnc2c1 [Compound 9]
